Structures are written as SMILES.

Here are results for seven compounds from patent publication US20070154906A1, “Methods to identify therapeutic candidates” (Spirogen Ltd., priority 2005, published 2007).

In data set [1] the test system is MS2 DNA fragment (MS2F and MS2R). The data set is described as follows: DNase I footprinting on MS2 DNA fragment. The data set is classed as binding. The following applies: for footprint shape at position H (footnote 1) / footprint shape at position J (footnote 2): MS2 DNA fragment; for footprint shape at position H (footnote 1): site H; for footprint shape at position J (footnote 2): site J. The method, then: The sequence selectivity of the six PBD-pyrrole conjugates (GWL 77, GWL 78, GWL 79, GWL 80, GWL 81 and GWL 82) was evaluated by standard DNA footprinting on a fragment of MS2 as follows, in accordance with the technique described in Martin, Biochemistry (2005) 44:4135-4147.
The vast majority of footprint sites are common features in the binding profiles of all six conjugates, with only a small number of sites being footprinted by a subset of the family. Even more unexpectedly, no site is footprinted by only one molecule (in fact, the fewest number of conjugates that bind at any single site is four). The differential cleavage plot in FIG. 5 provides footprinting profiles at a supramaximal concentration color-coded for each conjugate which illustrates a striking degree of overlap. Although there is no conspicuous change in footprinting patterns as the number of pyrroles units in each conjugate increases, there are changes in two other features, namely, the apparent binding affinity and the width of the footprinted site. […] To simplify comparison between molecules, only the most significant footprint site (5′-^62[…]^70−3′/3′-[…]-5′) (SEQ ID NO:24) was selected for comparison. When the binding affinity of each molecule is compared to the relative number of pyrrole units it contains, a parabolic relationship is observed. By this method, GWL 80 (four pyrroles) appears to be the strongest binder with a DNase IC50 of around 30 nM. Conjugate GWL 79 (three pyrroles) and GWL 81 (five pyrroles) follow closely with affinities in the region of 30-100 nM. […] Finally, GWL 77 (one pyrrole) is a particularly weak footprinting molecule with an DNase IC50 of about, or in excess of, 10 μM.

For data set [2], the system named is K562 human chronic myeloid leukemia cells. The data set is described as follows: In vitro cytotoxicity assay (MTT). The format is cell-based. As to conditions: K562, one hour exposure, MTT after four days. The procedure:
In one aspect of this test, K562 human chronic myeloid leukemia cells are maintained in RPMI1640 medium supplemented with 10% fetal calf serum and 2 mM glutamine at 37° C. in a humidified atmosphere containing 5% CO2 and are incubated with a specified dose of drug for one hour at 37° C. in the dark. The incubation is terminated by centrifugation (5 min, 300 g) and the cells are washed once with drug-free medium. Following the appropriate drug treatment, the cells are transferred to 96-well microtiter plates (10^4 cells per well, 8 wells per sample). Plates are then kept in the dark at 37° C. in a humidified atmosphere containing 5% CO2. The assay is based on the ability of viable cells to reduce a yellow soluble tetrazolium salt, 3-(4,5-dimethylthiazol-2-yl)-2,5-diphenyl-2H-tetrazolium bromide (MTT, Aldrich-Sigma), to an insoluble purple formazan precipitate. Following incubation of the plates for four days (to allow control cells to increase in number by approximately 10 fold), 20 μL of MTT solution (5 mg/ml in phosphate-buffered saline) is added to each well and the plates further incubated for five hours. […] The optical density is then read at a wavelength of 550 nm on a […]™ (Titertek Labsystems, Finland) ELISA plate reader, and a dose-response curve is constructed. […]

Data set [3] concerns MCF-7 human mammary cells. Put plainly: Cellular uptake and nuclear incorporation, confocal microscopy. The format is cell-based. As to conditions: for nuclear uptake: 200 μM over 24 hour; for time to cellular uptake / detection: MCF-7 cells; for nuclear fluorescence: highest drug concentrations, exposure time 24 hour. The procedure:
Cellular uptake and nuclear incorporation of drug into MCF-7 human mammary cells was visualized using confocal microscopy. Conjugates GWL 77, GWL78, GWL 79, GWL 80 and GWL 81 were prepared in DMSO at 20 mM and diluted in RPMI to the appropriate concentration. Freshly harvested MCF7 cells at 5×10^4 cells/ml were placed in 200 μl of complete RPMI1640 (containing 10% FCS) into the wells of 8-well chambered cover-glasses. Cells were left overnight to adhere at 37° C. […] At 1, 5 and 24 hours after addition of conjugates, the cells were examined using a Nikon TE2000 with UV filter set and viewed under oil immersion with the x63 objective lens.

The mark [4] stands for this setting: differential cleavage analysis, compared with GWL 79.

As to `COC(=O)c1cc(NC(=O)c2cc(NC(=O)c3cc(NC(=O)CCOc4cc5c(cc4OC)C(=O)N4CCC[C@H]4C=N5)cn3C)cn2C)cn1C` [C11, reference compound], the “apparent binding affinity relative to GWL 79” value in data set [1] (C11 versus GWL 79) is 30-100 fold. Further, in data set [1] (setting [4]), the “binding at positions K and L” value is listed as “much weaker binding”; the “footprints at positions D, M and G” value is “lack of footprints”.
On to `COC(=O)c1cc(NC(=O)CCCOc2cc3c(cc2OC)C(=O)N2CCC[C@H]2C=N3)cn1C` [GWL 77, (11aS) methyl 4-[4-(7-methoxy-5-oxo-2,3,5,11a-tetrahydro-5H-pyrrolo[2,1-c][1,4]benzodiazepine-8-yloxy)-butyrylamino]-1-methyl-1H-pyrrole-2-carboxylate], for which the “footprint at position G” value in data set [1] (differential cleavage analysis) is “footprinted”. Besides, the IC50 in data set [1] (read-out: DNase IC50 (concentration of conjugate providing 50% inhibition of DNase I-mediated cleavage), site 5'-62CAATACACA70-3', estimated by eye from footprint images) is at least 10000 nM. For the same compound, the IC50 in data set [2] was 51 nM. Further, in data set [3], the nuclear uptake entry is “clear nuclear uptake”, the “time to cellular uptake / detection” value was below 1 h and the nuclear fluorescence entry is given as “strong nuclear fluorescence”.
Consider `COC(=O)c1cc(NC(=O)c2cc(NC(=O)CCCOc3cc4c(cc3OC)C(=O)N3CCC[C@H]3C=N4)cn2C)cn1C` [GWL 78, (11aS) methyl 4-({4-[4-(7-methoxy-5-oxo-2,3,5,11a-tetrahydro-5H-pyrrolo[2,1-c][1,4]benzodiazepine-8-yloxy)-butyrylamino]-1-methyl-1H-pyrrole-2-carbonyl}-amino)-1-methyl-1H-pyrrole-2-carboxylate], for which, in data set [1] (differential cleavage analysis), the “footprint at position G” value is listed as “footprinted”. In data set [3], the nuclear uptake result is listed as “clear nuclear uptake”, the “time to cellular uptake / detection” value is 3 h and the nuclear fluorescence result is “strong nuclear fluorescence”.
In the case of `COC(=O)c1cc(NC(=O)c2cc(NC(=O)c3cc(NC(=O)CCCOc4cc5c(cc4OC)C(=O)N4CCC[C@H]4C=N5)cn3C)cn2C)cn1C` [GWL 79, (11aS) methyl 4-{[4-({4-[4-(7-methoxy-5-oxo-2,3,5,11a-tetrahydro-5H-pyrrolo[2,1-c][1,4]benzodiazepine-8-yloxy)-butyrylamino]-1-methyl-1H-pyrrole-2-carbonyl]-amino)-1-methyl-1H-pyrrole-2-carbonyl]-amino}-1-methyl-1H-pyrrole-2-carboxylate], in data set [3], the nuclear uptake result is listed as “clear nuclear uptake”, the “time to cellular uptake / detection” value was determined as 3 h and the nuclear fluorescence result is reported as “strong nuclear fluorescence”.
As to `COC(=O)c1cc(NC(=O)c2cc(NC(=O)c3cc(NC(=O)c4cc(NC(=O)CCCOc5cc6c(cc5OC)C(=O)N5CCC[C@H]5C=N6)cn4C)cn3C)cn2C)cn1C` [GWL 80, (11aS) methyl 4-[(4-{[4-({4-[4-(7-methoxy-5-oxo-2,3,5,11a-tetrahydro-5H-pyrrolo[2,1-c][1,4]benzodiazepine-8-yloxy)-butyrylamino]-1-methyl-1H-pyrrole-2-carbonyl]-amino)-1-methyl-1H-pyrrole-2-carbonyl]-amino}-1-methyl-1H-pyrrole-2-carbonyl)-amino]-1-methyl-1H-pyrrole-2-carboxylate], in data set [1], the “footprint shape at position H (footnote 1)” value (shortened to “footprint shape at position H”) is on record as “^127, 29, 31 show evidence of two closely juxtaposed footprints at this position” and the “footprint shape at position J (footnote 2)” value (“footprint shape at position J” for short) is reported as “^227, 29, 31 show evidence of two closely juxtaposed footprints at this position”. The “footprint at position G” value in data set [1] (differential cleavage analysis) is on record as “footprinted”. For the same compound, the nuclear fluorescence result in data set [3] is on record as “more diffuse throughout the cell”.
Turning to `COC(=O)c1cc(NC(=O)c2cc(NC(=O)c3cc(NC(=O)c4cc(NC(=O)c5cc(NC(=O)CCCOc6cc7c(cc6OC)C(=O)N6CCC[C@H]6C=N7)cn5C)cn4C)cn3C)cn2C)cn1C` [GWL 81, (11aS) methyl 4-({4-[(4-{[4-({4-[4-(7-methoxy-5-oxo-2,3,5,11a-tetrahydro-5H-pyrrolo[2,1-c][1,4]benzodiazepine-8-yloxy)-butyrylamino]-1-methyl-1H-pyrrole-2-carbonyl]-amino)-1-methyl-1H-pyrrole-2-carbonyl]-amino}-1-methyl-1H-pyrrole-2-carbonyl)-amino]-1-methyl-1H-pyrrole-2-carbonyl}-amino)-1-methyl-1H-pyrrole-2-carboxylate], in data set [1], the “footprint shape at position H” value was “^127, 29, 31 show evidence of two closely juxtaposed footprints at this position” and the “footprint shape at position J” value is on record as “^227, 29, 31 show evidence of two closely juxtaposed footprints at this position”. Further, the “footprint at position G” value in data set [1] (differential cleavage analysis) is reported as “footprinted”. Besides, in data set [3], the nuclear fluorescence result is listed as “more diffuse throughout the cell”.
As for `COC(=O)c1cc(NC(=O)c2cc(NC(=O)c3cc(NC(=O)c4cc(NC(=O)c5cc(NC(=O)c6cc(NC(=O)CCCOc7cc8c(cc7OC)C(=O)N7CCC[C@H]7C=N8)cn6C)cn5C)cn4C)cn3C)cn2C)cn1C` [GWL 82, (11aS) methyl 4-{[4-({4-[(4-{[4-({4-[4-(7-methoxy-5-oxo-2,3,5,11a-tetrahydro-5H-pyrrolo[2,1-c][1,4]benzodiazepine-8-yloxy)-butyrylamino]-1-methyl-1H-pyrrole-2-carbonyl]-amino)-1-methyl-1H-pyrrole-2-carbonyl]-amino}-1-methyl-1H-pyrrole-2-carbonyl)-amino]-1-methyl-1H-pyrrole-2-carbonyl}-amino)-1-methyl-1H-pyrrole-2-carbonyl]-amino}-1-methyl-1H-pyrrole-2-carboxylate], in data set [1], the “footprint shape at position H” value is listed as “^127, 29, 31 show evidence of two closely juxtaposed footprints at this position” and the “footprint shape at position J” value is recorded as “^227, 29, 31 show evidence of two closely juxtaposed footprints at this position”. This compound also had an IC50 in data set [2] of 32 nM. Moreover, the nuclear fluorescence result in data set [3] is given as “more diffuse throughout the cell”.
